The subject of experiment [1] is SMMC-7721. As to the kind of experiment: Antiproliferative activity against human SMMC7721 cells assessed as reduction in cell growth at 2 uM incubated for 72 hrs by CCK-8 assay relative to control. Type of experiment: functional. To be noted: SMMC-7721, 72 h.
Experiment [2] has as its system A-375. As to the kind of experiment: Antiproliferative activity against human A375 cells assessed as reduction in cell growth at 8 uM incubated for 72 hrs by CCK-8 assay relative to control. To be noted: A-375, 72 h. Type of experiment: functional. (Formazan colour is commonly taken as a measure of viable cells.)
In experiment [3] the test system is HeLa. The experiment can be described thus: Antiproliferative activity against human HeLa cells assessed as reduction in cell growth at 8 uM incubated for 72 hrs by CCK-8 assay relative to control. It is filed as functional.
Experiment [4] deals with HCT-116. As to the kind of experiment: Antiproliferative activity against human HCT116 cells assessed as reduction in cell growth at 2 uM incubated for 72 hrs by CCK-8 assay relative to control. Type of experiment: functional. To be noted: HCT-116, 72 h.
The subject of experiment [5] is HeLa. As to the kind of experiment: Antiproliferative activity against human HeLa cells assessed as reduction in cell growth at 2 uM incubated for 72 hrs by CCK-8 assay relative to control. Type of experiment: functional.
For experiment [6], the system named is A549. As to the kind of experiment: Antiproliferative activity against human A549 cells assessed as reduction in cell growth at 8 uM incubated for 72 hrs by CCK-8 assay relative to control. To be noted: A549, 72 h. It is filed as functional.
Experiment [7] has as its system A-375. As to the kind of experiment: Antiproliferative activity against human A375 cells assessed as reduction in cell growth at 2 uM incubated for 72 hrs by CCK-8 assay relative to control. It is filed as functional. To be noted: A-375, 72 h.
Experiment [8] relates to HCT-116. The experiment can be described thus: Antiproliferative activity against human HCT116 cells assessed as reduction in cell growth at 8 uM incubated for 72 hrs by CCK-8 assay relative to control. To be noted: HCT-116, 72 h. It is filed as functional.
Experiment [9] relates to SMMC-7721. As to the kind of experiment: Antiproliferative activity against human SMMC7721 cells assessed as reduction in cell growth at 8 uM incubated for 72 hrs by CCK-8 assay relative to control. Type of experiment: functional. To be noted: SMMC-7721, 72 h.
Experiment [10] deals with A549. The experiment can be described thus: Antiproliferative activity against human A549 cells assessed as reduction in cell growth at 2 uM incubated for 72 hrs by CCK-8 assay relative to control. Type of experiment: functional. To be noted: A549, 72 h.
Experiment [11] relates to SMMC-7721. The experiment can be described thus: Antiproliferative activity against human SMMC7721 cells assessed as reduction in cell growth incubated for 72 hrs by CCK-8 assay. Type of experiment: functional, cell-based. To be noted: SMMC-7721, 72 h.

The values that follow come from ChEMBL document CHEMBL4393680, “Design, synthesis and biological evaluation of novel thioquinazolinone-based 2-aminobenzamide derivatives as potent histone deacetylase (HDAC) inhibitors” (Eur J Med Chem, 2019).

The inhibition is the change of the read-out against control, counted positive when it falls. For orientation: IC50 means the midpoint of a concentration-inhibition curve.

Consider `Nc1ccccc1NC(=O)c1ccc(CSc2nc3cc(Br)ccc3c(=O)n2-c2cccc(Cl)c2)cc1`, for which the inhibition at 2 µM in experiment [1] was 10.5%; in experiment [4] it was 11.3%; in experiment [5], 55%; in experiment [7], 17.4%; in [10] it was 35.6%. The inhibition at 8 µM in experiment [2] was 32.9%; in experiment [3], 67%; in experiment [6], 36.4%; in experiment [8], 31.3%; in [9], 21%.
For `COc1ccc2c(=O)n(-c3cccc(Cl)c3)c(SCc3ccc(/C=C/C(=O)Nc4ccccc4N)cc3)nc2c1`, the inhibition at 2 µM stood at 0.7% in experiment [1]; 2.1% in [4]; 16.3% in [5]; 5.4% in experiment [7]; 4.1% in experiment [10]. The inhibition at 8 µM in experiment [2] stood at 8.9%; in experiment [3], 24.9%; in experiment [6] it was 37.2%; in experiment [8], 12.7%; in [9], 5.1%.
In the case of `CCn1c(SCc2ccc(C(=O)Nc3ccccc3N)cc2)nc2cc(Cl)ccc2c1=O`, the inhibition at 2 µM stood at 18.4% in experiment [1]; 7.3% in experiment [4]; 39.1% in experiment [5]; 12.7% in experiment [7]; 3.6% in experiment [10]. Besides, the inhibition at 8 µM in experiment [2] worked out at 49.9%; in experiment [3], 43.4%; in experiment [6], 13.7%; in experiment [8], 7.4%; in [9] it was 34.2%.
Consider `Cn1c(SCc2ccc(/C=C/C(=O)Nc3ccccc3N)cc2)nc2cc(Br)ccc2c1=O`, for which the inhibition at 2 µM in experiment [1] turned out to be 13.2%; in experiment [4], 9%; in experiment [5], 17.7%; in [7], 4%; in experiment [10] it was 1.9%. For the same molecule, the inhibition at 8 µM in experiment [2] came to 6.3%; in experiment [3], 30.3%; in experiment [6], 14%; in experiment [8], 19.4%; in experiment [9] it was 15.2%.
Turning to `Cc1cccc2c(=O)n(C)c(SCc3ccc(/C=C/C(=O)Nc4ccccc4N)cc3)nc12`, the inhibition at 2 µM was found to be 26.3% in experiment [1]; 4.5% in experiment [4]; 31.6% in experiment [5]; 9.3% in [7]; 34% in experiment [10]. Besides, the inhibition at 8 µM is 13.7% in experiment [2]; 56.6% in experiment [3]; 43.8% in [6]; 5.8% in [8]; 36.4% in [9].
For `CCn1c(SCc2ccc(C(=O)Nc3cc(F)ccc3N)cc2)nc2cc(OC)ccc2c1=O`, the IC50 in experiment [11] came to 4.86 µM. For the same molecule, the inhibition at 2 µM in [1] turned out to be 36%; in experiment [4] it was 50.3%; in experiment [5], 6.9%; in experiment [7], 17.1%; in experiment [10] it was 12.3%. The inhibition at 8 µM was 38.8% in [2]; 41.6% in [3]; 36.4% in experiment [6]; 67.8% in experiment [8]; 61.4% in experiment [9].
For the molecule `Cc1ccc2nc(SCc3ccc(/C=C/C(=O)Nc4ccccc4N)cc3)n(C)c(=O)c2c1`, the inhibition at 2 µM is 34.1% in [1]; 7.2% in [4]; 25.5% in experiment [5]; 9% in experiment [7]; 26.7% in [10]. Moreover, the inhibition at 8 µM in experiment [2] is 22.8%; in experiment [3] it was 55.3%; in experiment [6], 38.7%; in experiment [8], 18.6%; in experiment [9] it was 57.6%.
In the case of `COc1ccc2c(=O)n(-c3cccc(Cl)c3)c(SCC(=O)Nc3ccccc3N)nc2c1`, the inhibition at 2 µM turned out to be 24.6% in experiment [1]; 3.9% in [4]; 27.8% in [5]; 3.2% in experiment [7]; 13% in experiment [10]. Also, the inhibition at 8 µM amounted to 43.3% in experiment [2]; 38.5% in [3]; 28.2% in experiment [6]; 6.6% in experiment [8]; 38.1% in experiment [9].
`CCn1c(SCc2ccc(/C=C/C(=O)Nc3ccccc3N)cc2)nc2cc(Cl)ccc2c1=O`: the inhibition at 2 µM in experiment [1] came out at 12.1%; in [4] it was 12.1%; in experiment [5], 8.7%; in [7] it was 12%; in experiment [10] it was 31.6%. The inhibition at 8 µM came to 22.9% in [2]; 21.8% in experiment [3]; 45.7% in experiment [6]; 28.4% in experiment [8]; 28.4% in experiment [9].
Consider `Cc1cccc2nc(SCc3ccc(/C=C/C(=O)Nc4ccccc4N)cc3)n(C)c(=O)c12`, for which the IC50 in [11] stood at 3.56 µM. Also, the inhibition at 2 µM in experiment [1] turned out to be 50.5%; in experiment [4], 8.9%; in experiment [5] it was 44.3%; in experiment [7], 24.4%; in experiment [10], 39.4%. The inhibition at 8 µM stood at 32.4% in [2]; 51.8% in experiment [3]; 46% in experiment [6]; 11.7% in experiment [8]; 52.3% in [9].
As to `Cn1c(SCc2ccc(/C=C/C(=O)Nc3ccccc3N)cc2)nc2cc(F)ccc2c1=O`, the inhibition at 2 µM in experiment [1] is 12.3%; in experiment [4] it was 0.9%; in experiment [5] it was 12.7%; in [7], 1.6%; in [10] it was 2.9%. Besides, the inhibition at 8 µM in experiment [2] was found to be 6.4%; in [3], 21.2%; in experiment [6], 22.9%; in experiment [8], 3.3%; in experiment [9], 29.5%.
Turning to `CCCCn1c(SCc2ccc(C(=O)Nc3ccccc3N)cc2)nc2cc(Br)ccc2c1=O`, the inhibition at 2 µM in [1] amounted to 18.2%; in [4] it was 14.1%; in experiment [5], 21.3%; in [7] it was 8.5%; in experiment [10] it was 28.1%. The inhibition at 8 µM in experiment [2] came to 37.7%; in experiment [3], 34.7%; in experiment [6], 39.7%; in experiment [8] it was 51.9%; in experiment [9] it was 26.4%.
As to `CCn1c(SCc2ccc(C(=O)Nc3ccccc3N)cc2)nc2cc(F)ccc2c1=O`, the inhibition at 2 µM in experiment [1] stood at 0.8%; in experiment [4], 5.3%; in [5], 25.7%; in [7], 8.4%; in experiment [10], 54.4%. Besides, the inhibition at 8 µM stood at 10.3% in experiment [2]; 31% in [3]; 56.5% in [6]; 64.3% in experiment [8]; 20.4% in [9].
As for `CCCCn1c(SCc2ccc(/C=C/C(=O)Nc3ccccc3N)cc2)nc2cc(F)ccc2c1=O`, the inhibition at 2 µM in experiment [1] stood at 10.2%; in experiment [4], 12%; in experiment [5], 11.6%; in experiment [7], 1.9%; in [10], 4.6%. Further, the inhibition at 8 µM was found to be 15.8% in [2]; 26.2% in experiment [3]; 13.5% in [6]; 33.2% in experiment [8]; 29% in [9].
Consider `CCn1c(SCC(=O)Nc2ccccc2N)nc2cc(Cl)ccc2c1=O`, for which the inhibition at 2 µM in experiment [1] was determined as 1.8%; in [4] it was 3.9%; in experiment [5] it was 39.2%; in experiment [7], 24.4%; in experiment [10], 14.2%. Also, the inhibition at 8 µM in experiment [2] is 32.5%; in experiment [3], 59.7%; in [6] it was 27.5%; in experiment [8], 6.9%; in [9] it was 2.1%.
As for `CCn1c(SCc2ccc(C(=O)Nc3ccccc3N)cc2)nc2cc(OC)ccc2c1=O`, the inhibition at 2 µM worked out at 32.2% in experiment [1]; 5% in experiment [4]; 42.1% in [5]; 20% in experiment [7]; 28% in experiment [10]. Further, the inhibition at 8 µM was found to be 31.4% in experiment [2]; 44% in experiment [3]; 30.3% in experiment [6]; 6.7% in experiment [8]; 45.8% in experiment [9].
With `COc1ccc2c(=O)n(C)c(SCc3ccc(/C=C/C(=O)Nc4ccccc4N)cc3)nc2c1`, the inhibition at 2 µM turned out to be 3.6% in experiment [1]; 9.4% in [4]; 20.7% in [5]; 2.5% in [7]; 54.3% in experiment [10]. The inhibition at 8 µM is 10.4% in experiment [2]; 30.2% in [3]; 56.6% in experiment [6]; 12.2% in [8]; 15.4% in experiment [9].
